Measurements reported in US20210024542A1 (Torcept Therapeutics, Inc., priority 2018, published 2021).

How the values were obtained:
Hs 729 = test: OncoPanel cell proliferation assay, Hs 729; format: cell-based, human; details: Hs 729; 3.18E−05 microM
Experimental: (§1) Cells were grown in RPMI 1640, 10% FBS, 2 mM L-alanyl-L-glutamine, 1 mM Na pyruvate, or a special medium. Cells were seeded into 384-well plates and incubated in a humidified atmosphere of 5% CO2 at 37° C. Compounds were added the day following cell seeding. At the same time, a time zero untreated cell plate was generated. After a 3-day incubation period, cells were fixed and stained to allow fluorescence imaging of nuclei. Compounds (1 mM stock solutions) were serially diluted in half-log steps from the highest test concentration ([…]), and assayed over 10 concentrations with a maximum assay concentration of 0.1% DMSO. Automated fluorescence microscopy was carried out using a Molecular Devices ImageXpress Micro XL high-content imager, and images were collected with a 4× objective. 16-bit TIFF images were acquired and analyzed with MetaXpress 5.1.0.41 software.
(§2) Cell proliferation was measured by the fluorescence intensity of an incorporated nuclear dye. The output is referred to as the relative cell count, where the measured nuclear intensity is transformed to percent of control (POC) using the following formula: […]
(§3) Cellular response parameters were calculated using nonlinear regression to a sigmoidal single-site dose response model:
(§4) Where y is a response measured at concentration x, A and B are the lower and upper limits of the response, C is the concentration at the response midpoint (EC50), and D is the Hill Slope (Ref. 1).
(§5) EC50 is the test compound concentration at the curve inflection point or half the effective response (parameter C of the fitted curve solution). GI50 is the concentration needed to reduce the observed growth by half (midway between the curve maximum and the time zero value). “Cell Count Activity Area” is an estimate of the integrated area above the curve (Barretina, et al. The Cancer Cell Line Encyclopedia enables predictive modelling of anticancer drug sensitivity. Nature 483: 603-607). […] In rare instances, values <0 or >10 may be observed. […] Curve-fitting, calculations, and report generation was performed using a custom data reduction engine and MathIQ based software (AIM).

ST486 = test: OncoPanel cell proliferation assay, ST486; format: cell-based, human; details: for Relative cell count (%) Mean: ST486
Experimental: as §1, §2, §3, §4, §5

RKOE6 = test: OncoPanel cell proliferation assay, RKOE6; details: for Relative cell count (%) Mean: RKOE6
Experimental: (§6) Cells were seeded into 384-well plates and incubated in a humidified atmosphere of 5% CO2 at 37° C. Compounds were added the day following cell seeding. At the same time, a time zero untreated cell plate was generated. After a 3-day incubation period, cells were fixed and stained to allow fluorescence imaging of nuclei. Compounds (1 mM stock solutions) were serially diluted in half-log steps from the highest test concentration (1 micromol), and assayed over 10 concentrations with a maximum assay concentration of 0.1% DMSO. Automated fluorescence microscopy was carried out using a Molecular Devices ImageXpress Micro XL high-content imager, and images were collected with a 4× objective. 16-bit TIFF images were acquired and analyzed with MetaXpress 5.1.0.41 software.
(§7) GI50 is the concentration needed to reduce the observed growth by half (midway between the curve maximum and the time zero value). […] In rare instances, values <0 or >10 may be observed. […] Curve-fitting, calculations, and report generation was performed using a custom data reduction engine and MathIQ based software (AIM).

U-87 MG = test: OncoPanel cell proliferation assay, U-87 MG; format: cell-based, human
Experimental: as §1, §2, §3, §4, §5

CHP-212 = test: OncoPanel cell proliferation assay, CHP-212; details: for Relative cell count (%) Mean: CHP-212
Experimental: as §6, §7

NCIH446 = test: OncoPanel cell proliferation assay, NCIH446; format: cell-based, human; details: for Relative cell count (%) Mean: NCIH446
Experimental: as §1, §2, §3, §4, §5

CaOV3 = test: OncoPanel cell proliferation assay, CaOV3; format: cell-based, human; details: for Relative cell count (%) Mean: CaOV3
Experimental: as §1, §2, §3, §4, §5

Hs 852.T = test: OncoPanel cell proliferation assay, Hs 852.T; format: cell-based, human
Experimental: as §1, §2, §3, §4, §5

[1] = Homo sapiens, 72 h, 3-day incubation, read-out: Cell Count EC50
[2] = Homo sapiens, 72 h, 3-day incubation, read-out: Cell Count GI50
[3] = Homo sapiens, 72 h, 3-day incubation, read-out: Cell Count IC50

In the case of `CO[C@H]1C[C@@H]2CC[C@@H](C)[C@@](O)(O2)C(=O)C(=O)N2CCCC[C@H]2C(=O)O[C@H]([C@H](C)C[C@@H]2C[C@@H]3C[C@H]2C[C@H]3O)CC(=O)[C@H](C)/C=C(\C)[C@@H](O)[C@@H](OC)C(=O)[C@H](C)C[C@H](C)/C=C/C=C/C=C/1C` [Formula I, 37R-hydroxynorbornylrapamycin], the “Relative cell count (%) Mean” value (Hs 729) is reported as 91.5%, the EC50 (ST486; Homo sapiens, 72 h, ST486, 3-day incubation, read-out: Cell Count EC50) is reported as 0.128 nM and the GI50 (ST486; Homo sapiens, 72 h, ST486, 3-day incubation, read-out: Cell Count GI50) is reported as 0.226 nM. The IC50 (ST486; Homo sapiens, 72 h, ST486, 3-day incubation, read-out: Cell Count IC50) was greater than 1000 nM, the “Cell Count Activity Area” value (ST486; ST486, scale 0-10) was 3.70 and the “Relative cell count (%) Mean” value (ST486; 1.00E+00 microM) was 50.5%. For the same molecule, the “Relative cell count (%) Mean” value (ST486; 1.00E−01 microM) was 58.5%, the “Relative cell count (%) Mean” value (ST486; 1.00E−02 microM) was 56.8% and the “Relative cell count (%) Mean” value (ST486; 1.00E−03 microM) was 61.1%. The “Relative cell count (%) Mean” value (ST486; 1.01E−04 microM) was 81.6%, the “Relative cell count (%) Mean” value (ST486; 3.16E−01 microM) was 51.1% and the “Relative cell count (%) Mean” value (ST486; 3.17E−02 microM) was 54.8%. The “Relative cell count (%) Mean” value (ST486; 3.17E−03 microM) was 56.0%, the “Relative cell count (%) Mean” value (ST486; 3.18E−04 microM) was 63.3% and the “Relative cell count (%) Mean” value (ST486; 3.18E−05 microM) was 90.7%. For the same molecule, the EC50 (RKOE6; Homo sapiens, RKOE6, 72 h, read-out: Cell Count EC50) was 0.201 nM, the GI50 (RKOE6; Homo sapiens, RKOE6, 72 h, read-out: Cell Count GI50) was 1.07 nM and the IC50 (RKOE6; Homo sapiens, RKOE6, 72 h, read-out: Cell Count IC50) was 2.88 nM. For the same molecule, the “Cell Count Activity Area” value (RKOE6; RKOE6, scale 0-10) was 4.44, the “Relative cell count (%) Mean” value (RKOE6; 1.00E+00 microM) was 41.6% and the “Relative cell count (%) Mean” value (RKOE6; 1.00E−01 microM) was 43.0%. The “Relative cell count (%) Mean” value (RKOE6; 1.00E−02 microM) was 47.6%, the “Relative cell count (%) Mean” value (RKOE6; 1.00E−03 microM) was 55.7% and the “Relative cell count (%) Mean” value (RKOE6; 1.01E−04 microM) was 73.6%. The “Relative cell count (%) Mean” value (RKOE6; 3.16E−01 microM) was 41.0%, the “Relative cell count (%) Mean” value (RKOE6; 3.17E−02 microM) was 42.9% and the “Relative cell count (%) Mean” value (RKOE6; 3.17E−03 microM) was 52.5%. For the same molecule, the “Relative cell count (%) Mean” value (RKOE6; 3.18E−04 microM) was 66.1%, the “Relative cell count (%) Mean” value (RKOE6; 3.18E−05 microM) was 92.5% and the “Relative cell count (%) Mean” value (U-87 MG; 1.00E+00 microM) was 51.2%. For the same molecule, the “Relative cell count (%) Mean” value (U-87 MG; 1.00E−01 microM) was 54.5%, the “Relative cell count (%) Mean” value (U-87 MG; 1.00E−02 microM) was 54.7% and the “Relative cell count (%) Mean” value (U-87 MG; 1.00E−03 microM) was 64.8%. The “Relative cell count (%) Mean” value (U-87 MG; 1.01E−04 microM) was 87.3%, the “Relative cell count (%) Mean” value (U-87 MG; 3.16E−01 microM) was 51.6% and the “Relative cell count (%) Mean” value (U-87 MG; 3.17E−02 microM) was 50.4%. The “Relative cell count (%) Mean” value (U-87 MG; 3.17E−03 microM) was 58.9%, the “Relative cell count (%) Mean” value (U-87 MG; 3.18E−04 microM) was 71.8% and the “Relative cell count (%) Mean” value (U-87 MG; 3.18E−05 microM) was 93.7%. It also gave an EC50 (U-87 MG; [1]) of 0.206 nM, a GI50 (U-87 MG; [2]) of 0.509 nM and an IC50 (U-87 MG; [3]) of 48.8 nM. The “Cell Count Activity Area” value (U-87 MG; scale 0-10) was 3.92, the “Cell Count Activity Area” value (CHP-212; CHP-212, scale 0-10) was 3.70 and the “Relative cell count (%) Mean” value (CHP-212; 1.00E−01 microM) was 49.6%. The “Relative cell count (%) Mean” value (CHP-212; 1.00E−02 microM) was 52.8%, the “Relative cell count (%) Mean” value (CHP-212; 1.00E−03 microM) was 56.6% and the “Relative cell count (%) Mean” value (CHP-212; 1.01E−04 microM) was 70.6%. For the same molecule, the “Relative cell count (%) Mean” value (CHP-212; 3.16E−01 microM) was 45.9%, the “Relative cell count (%) Mean” value (CHP-212; 3.17E−02 microM) was 49.0% and the “Relative cell count (%) Mean” value (CHP-212; 3.17E−03 microM) was 55.3%. For the same molecule, the “Relative cell count (%) Mean” value (CHP-212; 3.18E−04 microM) was 63.3%, the “Relative cell count (%) Mean” value (CHP-212; 3.18E−05 microM) was 86.7% and the EC50 (CHP-212; Homo sapiens, CHP-212, 72 h, read-out: Cell Count EC50) was 0.0918 nM. It also gave a GI50 (CHP-212; Homo sapiens, CHP-212, 72 h, read-out: Cell Count GI50) of 0.125 nM, an IC50 (CHP-212; Homo sapiens, CHP-212, 72 h, read-out: Cell Count IC50) of 19.3 nM and an EC50 (NCIH446; Homo sapiens, NCI-H446, 72 h, NCIH446, 3-day incubation, read-out: Cell Count EC50) of 1.37 nM. For the same molecule, the GI50 (NCIH446; Homo sapiens, NCI-H446, 72 h, NCIH446, 3-day incubation, read-out: Cell Count GI50) was 75.5 nM, the IC50 (NCIH446; Homo sapiens, NCI-H446, 72 h, NCIH446, 3-day incubation, read-out: Cell Count IC50) was greater than 1000 nM and the “Cell Count Activity Area” value (NCIH446; NCIH446, scale 0-10) was 1.96. For the same molecule, the “Relative cell count (%) Mean” value (NCIH446; 1.00E+00 microM) was 69.7%, the “Relative cell count (%) Mean” value (NCIH446; 1.00E−01 microM) was 77.0% and the “Relative cell count (%) Mean” value (NCIH446; 1.00E−02 microM) was 75.9%. For the same molecule, the “Relative cell count (%) Mean” value (NCIH446; 1.00E−03 microM) was 88.1%, the “Relative cell count (%) Mean” value (NCIH446; 1.01E−04 microM) was 102.8% and the “Relative cell count (%) Mean” value (NCIH446; 3.16E−01 microM) was 71.2%. The “Relative cell count (%) Mean” value (NCIH446; 3.17E−02 microM) was 85.0%, the “Relative cell count (%) Mean” value (NCIH446; 3.17E−03 microM) was 82.3% and the “Relative cell count (%) Mean” value (NCIH446; 3.18E−04 microM) was 100.1%. The “Relative cell count (%) Mean” value (NCIH446; 3.18E−05 microM) was 99.4%, the “Cell Count Activity Area” value (CaOV3; CaOV3, scale 0-10) was 2.82 and the “Relative cell count (%) Mean” value (CaOV3; 1.00E+00 microM) was 54.4%. For the same molecule, the “Relative cell count (%) Mean” value (CaOV3; 1.00E−01 microM) was 58.3%, the “Relative cell count (%) Mean” value (CaOV3; 1.00E−02 microM) was 64.8% and the “Relative cell count (%) Mean” value (CaOV3; 1.00E−03 microM) was 75.3%. For the same molecule, the “Relative cell count (%) Mean” value (CaOV3; 1.01E−04 microM) was 91.0%, the “Relative cell count (%) Mean” value (CaOV3; 3.16E−01 microM) was 57.1% and the “Relative cell count (%) Mean” value (CaOV3; 3.17E−02 microM) was 59.5%. For the same molecule, the “Relative cell count (%) Mean” value (CaOV3; 3.17E−03 microM) was 68.5%, the “Relative cell count (%) Mean” value (CaOV3; 3.18E−04 microM) was 85.0% and the “Relative cell count (%) Mean” value (CaOV3; 3.18E−05 microM) was 92.8%. It also gave an EC50 (CaOV3; Homo sapiens, Caov-3, 72 h, CaOV3, 3-day incubation, read-out: Cell Count EC50) of 0.976 nM, a GI50 (CaOV3; Homo sapiens, Caov-3, 72 h, CaOV3, 3-day incubation, read-out: Cell Count GI50) of 9.68 nM and an IC50 (CaOV3; Homo sapiens, Caov-3, 72 h, CaOV3, 3-day incubation, read-out: Cell Count IC50) greater than 1000 nM. For the same molecule, the “Relative cell count (%) Mean” value (Hs 852.T; 1.00E+00 microM) was 67.7%, the “Relative cell count (%) Mean” value (Hs 852.T; 1.00E−01 microM) was 82.5% and the “Relative cell count (%) Mean” value (Hs 852.T; 1.00E−02 microM) was 92.9%. For the same molecule, the “Relative cell count (%) Mean” value (Hs 852.T; 1.00E−03 microM) was 96.5%, the “Relative cell count (%) Mean” value (Hs 852.T; 1.01E−04 microM) was 106.1% and the “Relative cell count (%) Mean” value (Hs 852.T; 3.16E−01 microM) was 78.0%. The “Relative cell count (%) Mean” value (Hs 852.T; 3.17E−02 microM) was 87.7%, the “Relative cell count (%) Mean” value (Hs 852.T; 3.17E−03 microM) was 100.5% and the “Relative cell count (%) Mean” value (Hs 852.T; 3.18E−04 microM) was 105.1%. The “Relative cell count (%) Mean” value (Hs 852.T; 3.18E−05 microM) was 99.0%, the EC50 (Hs 852.T; [1]) was 335 nM and the GI50 (Hs 852.T; [2]) was 803 nM. The IC50 (Hs 852.T; [3]) was greater than 1000 nM and the “Cell Count Activity Area” value (Hs 852.T; scale 0-10) was 1.22.
